What was measured:
[1] = system: Ps. acruginosa ATCC 27853; assay: MIC, agar dilution (Table IA); type: cell-based; conditions: unit assumed
[2] = system: S. haemolyticus AVAH 88-3; assay: MIC, agar dilution; type: cell-based; conditions: S. hemolyticus AVHAH 88-3; Table IA; unit assumed
E. coli UBMS 90-5 = assay: MIC, agar dilution (Table IA); type: cell-based; conditions: unit assumed
[3] = system: S. aureus IVES 1983 (meth. resistant); assay: MIC, agar dilution; type: cell-based; conditions: S. aureus IVES 1983; Table IA; unit assumed
[4] = system: TetM S30 extract, derivative of E. coli MRE600 containing the tetM determinant; assay: E. coli in vitro transcription and protein translation, 35S-methionine incorporation (Table VIII)
[5] = system: S. aureus UBMS 88-4 (Sensitive); assay: MIC, agar dilution; type: cell-based; conditions: S. aureus UBMS 88-4; Table IA; unit assumed
S. mariescens FDOR 8733 = assay: MIC, agar dilution (Table IA); type: cell-based; conditions: unit assumed
E. coli #311 (MP) = assay: MIC, agar dilution (Table IA); type: cell-based; conditions: unit assumed
[6] = system: S. aureus UBMS 88-5 (tetM); assay: MIC, agar dilution; type: cell-based; conditions: S. aureus UBMS 88-5 TetM; Table IA; unit assumed
E. coli J3272 Tet sens. = assay: MIC, agar dilution (Table IA); type: cell-based; conditions: unit assumed
[7] = system: S. aureus ATCC 29213 (Sensitive); assay: MIC, agar dilution; type: cell-based; conditions: S. aureus ATCC 29213; Table IA; unit assumed
[8] = system: S. aureus UBMS 90-2 (tetM); assay: MIC, agar dilution; type: cell-based; conditions: S. aureus UBMS 90-2 TetM; Table IA; unit assumed
E. coli MC4100 TetB = assay: MIC, agar dilution (Table IA); type: cell-based; conditions: unit assumed
E. coli UBMS 88-1 (tetB) = assay: MIC, agar dilution; type: cell-based; conditions: E. coli UBMS 88-1 TetB; Table IA; unit assumed
[9] = system: S. aureus IVES 2943 (meth. resistant); assay: MIC, agar dilution; type: cell-based; conditions: S. aureus IVES 2943; Table IA; unit assumed
E. faecalis ATCC 29212 = assay: MIC, agar dilution; type: cell-based; conditions: E. faecalis ATCC 29212; Table IA; unit assumed
E. coli ATCC 25922 = assay: MIC, agar dilution; type: cell-based; conditions: E. coli ATCC 25922; Table IA; unit assumed
S. aureus NEMC 8769/89-4 = assay: MIC, agar dilution (Table IA); type: cell-based; conditions: unit assumed
[10] = system: S. aureus Smith (Sensitive); assay: MIC, agar dilution; type: cell-based; conditions: S. aureus SMITH (MP); Table IA; unit assumed
E. coli BAJ9003 = assay: MIC, agar dilution (Table IA); type: cell-based; conditions: unit assumed
S. aureus ROSE (MP) = assay: MIC, agar dilution (Table IA); type: cell-based; conditions: unit assumed
E. coli J2175 = assay: MIC, agar dilution (Table IA); type: cell-based; conditions: unit assumed
[11] = system: S. aureus UBMS 88-7 (tetK); assay: MIC, agar dilution; type: cell-based; conditions: S. aureus UBMS 88-7 TetK; Table IA; unit assumed
[12] = system: Wild Type S30 extract, E. coli strain MRE600 (tetracycline sensitive); assay: E. coli in vitro transcription and protein translation, 35S-methionine incorporation (Table VIII)
E. coli J3272 TetD = assay: MIC, agar dilution (Table IA); type: cell-based; conditions: unit assumed
[13] = system: S. aureus UBMS 90-1 (tetM); assay: MIC, agar dilution; type: cell-based; conditions: S. aureus UBMS 90-1 TetM; Table IA; unit assumed
[14] = system: X. maltophilia NEMC 87210; assay: MIC, agar dilution (Table IA); type: cell-based; conditions: unit assumed
E. coli PRP1 TetA = assay: MIC, agar dilution (Table IA); type: cell-based; conditions: unit assumed
E. coli UBMS 89-1 (tetM) = assay: MIC, agar dilution; type: cell-based; conditions: E. coli UBMS 89-1 TetM; Table IA; unit assumed
E. faecalis 12201 = assay: MIC, agar dilution; type: cell-based; conditions: Enterococcus 12201; Table IA; unit assumed
E. coli J3272 TetC = assay: MIC, agar dilution (Table IA); type: cell-based; conditions: unit assumed
[15] = system: E. coli UBMS 89-2 (Sensitive); assay: MIC, agar dilution; type: cell-based; conditions: E. coli UBMS 89-2 Tet Sens.; Table IA; unit assumed
[16] = system: S. aureus UBMS 90-3 (Sensitive); assay: MIC, agar dilution; type: cell-based; conditions: S. aureus UBMS 90-3; Table IA; unit assumed
E. coli UBMS 90-4 (tetM) = assay: MIC, agar dilution; type: cell-based; conditions: E. coli UBMS 90-4 TetM; Table IA; unit assumed

Structure (SMILES) | Antibacterial activity (MIC) [1] | Antibacterial activity (MIC) [2] | Antibacterial activity (MIC) (E. coli UBMS 90-5) | Antibacterial activity (MIC) [3] | % INHIBITION TetM S30 ([4]; 0.06 mg/ml) | % INHIBITION TetM S30 ([4]; 0.2 mg/ml) | % INHIBITION TetM S30 ([4]; 1.0 mg/ml) | Antibacterial activity (MIC) [5] | Antibacterial activity (MIC) (S. mariescens FDOR 8733) | Antibacterial activity (MIC) (E. coli #311 (MP)) | Antibacterial activity (MIC) [6] | Antibacterial activity (MIC) (E. coli J3272 Tet sens.) | Antibacterial activity (MIC) [7] | Antibacterial activity (MIC) [8] | Antibacterial activity (MIC) (E. coli MC4100 TetB) | Antibacterial activity (MIC) (E. coli UBMS 88-1 (tetB)) | Antibacterial activity (MIC) [9] | Antibacterial activity (MIC) (E. faecalis ATCC 29212) | Antibacterial activity (MIC) (E. coli ATCC 25922) | Antibacterial activity (MIC) (S. aureus NEMC 8769/89-4) | further results
CNCC(=O)Nc1cc(N(C)C)c2c(c1O)C(=O)C1=C(O)[C@]3(O)C(=O)C(C(N)=O)=C(O)[C@@H](N(C)C)C3CC1C2.Cl.Cl (stereo partly drawn) [MM, [4S-(4alpha,12aalpha)]-4,7-Bis(dimethylamino)-1,4,4a,5,5a,6,11,12a-octahydro-3,10,12,12a-tetrahydroxy-9-[[(methylamino)acetyl]amino]-1,11-dioxo-2-naphthacenecarboxamide dihydrochloride] | 16 µg/mL | 1 µg/mL | 1 µg/mL | 16 µg/mL | 92% | 97% | 99% | 0.5 µg/mL | 16 µg/mL | 1 µg/mL | 0.5 µg/mL | 1 µg/mL | 1 µg/mL | 0.5 µg/mL | 1 µg/mL | 1 µg/mL | 32 µg/mL | 0.25 µg/mL | 1 µg/mL | 0.5 µg/mL | Antibacterial activity (MIC) [10]: 0.5 µg/mL; Antibacterial activity (MIC) (E. coli BAJ9003): 0.25 µg/mL; Antibacterial activity (MIC) (S. aureus ROSE (MP)): 32 µg/mL; Antibacterial activity (MIC) (E. coli J2175): 1 µg/mL; Antibacterial activity (MIC) [11]: 16 µg/mL; % INHIBITION Wild Type S30 ([12]; 0.06 mg/ml): 95%; % INHIBITION Wild Type S30 ([12]; 0.2 mg/ml): 98%; % INHIBITION Wild Type S30 ([12]; 1.0 mg/ml): 99%; Antibacterial activity (MIC) (E. coli J3272 TetD): 0.05 µg/mL; Antibacterial activity (MIC) [13]: 1 µg/mL; Antibacterial activity (MIC) [14]: 8 µg/mL; Antibacterial activity (MIC) (E. coli PRP1 TetA): 16 µg/mL; Antibacterial activity (MIC) (E. coli UBMS 89-1 (tetM)): 1 µg/mL; Antibacterial activity (MIC) (E. faecalis 12201): 0.25 µg/mL; Antibacterial activity (MIC) (E. coli J3272 TetC): 8 µg/mL; Antibacterial activity (MIC) [15]: 1 µg/mL; Antibacterial activity (MIC) [16]: 0.5 µg/mL
CN(C)c1cc(NC(=O)Cn2ccnc2)c(O)c2c1CC1CC3[C@H](N(C)C)C(O)=C(C(N)=O)C(=O)[C@@]3(O)C(O)=C1C2=O.Cl.Cl (stereo partly drawn) [VV, [7S-(7alpha,10aalpha)]-N-[9-(Aminocarbonyl)-4,7-bis(dimethylamino)-5,5a,6,6a,7,10,10a,12-octahydro-1,8,10a,11-tetrahydroxy-10,12-dioxo-2-naphthacenyl]-1H-imidazole-1-acetamide dihydrochloride] | > 32 µg/mL | > 32 µg/mL | > 32 µg/mL | > 32 µg/mL | 79% | 92% | 98% | 8 µg/mL | > 32 µg/mL | > 32 µg/mL | 32 µg/mL | > 32 µg/mL | 8 µg/mL | 16 µg/mL | > 32 µg/mL | > 32 µg/mL | > 32 µg/mL | 4 µg/mL | > 32 µg/mL | 4 µg/mL | Antibacterial activity (MIC) (E. coli UBMS 90-4 (tetM)): > 32 µg/mL; Antibacterial activity (MIC) [10]: 4 µg/mL; Antibacterial activity (MIC) (E. coli BAJ9003): 1 µg/mL; Antibacterial activity (MIC) (S. aureus ROSE (MP)): > 32 µg/mL; Antibacterial activity (MIC) (E. coli J2175): > 32 µg/mL; Antibacterial activity (MIC) [11]: 32 µg/mL; % INHIBITION Wild Type S30 ([12]; 0.06 mg/ml): 91%; % INHIBITION Wild Type S30 ([12]; 0.2 mg/ml): 93%; % INHIBITION Wild Type S30 ([12]; 1.0 mg/ml): 99%; Antibacterial activity (MIC) (E. coli J3272 TetD): > 32 µg/mL; Antibacterial activity (MIC) [13]: 32 µg/mL; Antibacterial activity (MIC) [14]: > 32 µg/mL; Antibacterial activity (MIC) (E. coli PRP1 TetA): > 32 µg/mL; Antibacterial activity (MIC) (E. coli UBMS 89-1 (tetM)): > 32 µg/mL; Antibacterial activity (MIC) (E. faecalis 12201): 4 µg/mL; Antibacterial activity (MIC) (E. coli J3272 TetC): > 32 µg/mL; Antibacterial activity (MIC) [15]: > 32 µg/mL; Antibacterial activity (MIC) [16]: 4 µg/mL
